Experimental data: ChEMBL document CHEMBL5625261, “Cytotoxic effects of kinetin riboside and its selected analogues on cancer cell lines” (Bioorg Med Chem Lett, 2024)
One block for each compound: values may come before it.

Experiments:
MIA PaCa-2 [1] = assay: Cytotoxicity against human MIA PaCa-2 cells assessed as reduction in cell viability incubated for 24 hrs by MTT assay; assay type: functional, cell-based; conditions: MIA PaCa-2, 24 h
HeLa [2] = assay: Cytotoxicity against human HeLa cells assessed as reduction in cell viability incubated for 24 hrs by MTT assay; assay type: functional, cell-based
MIA PaCa-2 [3] = assay: Cytotoxicity against human MIA PaCa-2 cells assessed as reduction in cell viability incubated for 72 hrs by MTT assay; assay type: functional, cell-based; conditions: MIA PaCa-2, 72 h
Caco-2 [4] = assay: Cytotoxicity against human Caco-2 cells assessed as reduction in cell viability incubated for 48 hrs by MTT assay; assay type: functional, cell-based; conditions: Caco-2, 48 h
MIA PaCa-2 [5] = assay: Cytotoxicity against human MIA PaCa-2 cells assessed as reduction in cell viability incubated for 48 hrs by MTT assay; assay type: functional, cell-based; conditions: MIA PaCa-2, 48 h
MCF7 [6] = assay: Cytotoxicity against human MCF7 cells assessed as reduction in cell viability incubated for 48 hrs by MTT assay; assay type: functional, cell-based; conditions: MCF7, 48 h
HeLa [7] = assay: Cytotoxicity against human HeLa cells assessed as reduction in cell viability incubated for 48 hrs by MTT assay; assay type: functional, cell-based
[8] = Cytotoxicity against human MRC5 cells assessed as reduction in cell viability incubated for 24 hrs by MTT assay; assay type: toxicity, cell-based
[9] = Cytotoxicity against human MRC5 cells assessed as reduction in cell viability incubated for 72 hrs by MTT assay; assay type: toxicity, cell-based
Caco-2 [10] = assay: Cytotoxicity against human Caco-2 cells assessed as reduction in cell viability incubated for 24 hrs by MTT assay; assay type: functional, cell-based; conditions: Caco-2, 24 h
Caco-2 [11] = assay: Cytotoxicity against human Caco-2 cells assessed as reduction in cell viability incubated for 72 hrs by MTT assay; assay type: functional, cell-based; conditions: Caco-2, 72 h
MCF7 [12] = assay: Cytotoxicity against human MCF7 cells assessed as reduction in cell viability incubated for 24 hrs by MTT assay; assay type: functional, cell-based; conditions: MCF7, 24 h
HeLa [13] = assay: Cytotoxicity against human HeLa cells assessed as reduction in cell viability incubated for 72 hrs by MTT assay; assay type: functional, cell-based
[14] = Cytotoxicity against human MRC5 cells assessed as reduction in cell viability incubated for 48 hrs by MTT assay; assay type: toxicity, cell-based
OVCAR-3 [15] = assay: Cytotoxicity against human OVCAR-3 cells assessed as reduction in cell viability incubated for 24 hrs by MTT assay; assay type: functional, cell-based; conditions: OVCAR-3, 24 h
MCF7 [16] = assay: Cytotoxicity against human MCF7 cells assessed as reduction in cell viability incubated for 72 hrs by MTT assay; assay type: functional, cell-based; conditions: MCF7, 72 h
OVCAR-3 [17] = assay: Cytotoxicity against human OVCAR-3 cells assessed as reduction in cell viability incubated for 72 hrs by MTT assay; assay type: functional, cell-based; conditions: OVCAR-3, 72 h
OVCAR-3 [18] = assay: Cytotoxicity against human OVCAR-3 cells assessed as reduction in cell viability incubated for 48 hrs by MTT assay; assay type: functional, cell-based; conditions: OVCAR-3, 48 h
MIA PaCa-2 [19] = assay: Cytotoxicity against human MIA PaCa-2 cells assessed as reduction in cell viability at 100 uM incubated for 72 hrs by MTT assay relative to control; assay type: functional
MIA PaCa-2 [20] = assay: Cytotoxicity against human MIA PaCa-2 cells assessed as reduction in cell viability at 100 uM incubated for 24 hrs by MTT assay relative to control; assay type: functional
M4Beu cell line = assay: Cytotoxicity against human M4Beu cell line assessed as inhibition of cell growth incubated for 14 days by crystal violet staining based assay; assay type: functional; conditions: 336 h
HCT-15 = assay: Antiproliferative activity against human HCT-15 cells assessed as cell growth inhibition incubated for 4 days by SRB assay; assay type: functional, cell-based; conditions: HCT-15, 96 h
HCT-116 = assay: Antiproliferative activity against human HCT-116 cells assessed as cell growth inhibition incubated for 72 hrs by Beckman Coulter counting method; assay type: functional, cell-based; conditions: HCT-116, 72 h
HeLa [21] = assay: Antiproliferative activity against human HeLa cells assessed as cell growth inhibition incubated for 72 hrs by Calcein AM staining based fluorescence assay; assay type: functional
MCF7 [22] = assay: Cytotoxicity against human MCF7 cells assessed as reduction in cell viability at 100 uM incubated for 24 hrs by MTT assay relative to control; assay type: functional
MCF7 [23] = assay: Antiproliferative activity against human MCF7 cells assessed as cell growth inhibition incubated for 72 hrs by Calcein AM staining based fluorescence assay; assay type: functional; conditions: MCF7, 72 h
G-361 = assay: Antiproliferative activity against human G361 cells assessed as cell growth inhibition incubated for 72 hrs by Beckman Coulter counting method; assay type: functional, cell-based; conditions: G-361, 72 h
HT-29 = assay: Antiproliferative activity against human HT-29 cells assessed as cell growth inhibition incubated for 72 hrs by Beckman Coulter counting method; assay type: functional, cell-based; conditions: HT-29, 72 h
[24] = Antiproliferative activity against human HS27 cells assessed as cell growth inhibition incubated for 72 hrs by Beckman Coulter counting method; assay type: toxicity, cell-based
MIA PaCa-2 [25] = assay: Antiproliferative activity against human MIA PaCa-2 cells assessed as cell growth inhibition incubated for 72 hrs by Beckman Coulter counting method; assay type: functional, cell-based; conditions: MIA PaCa-2, 72 h
A-375 = assay: Antiproliferative activity against human A-375 cells assessed as cell growth inhibition incubated for 72 hrs by Beckman Coulter counting method; assay type: functional, cell-based; conditions: A-375, 72 h
HeLa [26] = assay: Cytotoxicity against human HeLa cells assessed as reduction in cell viability at 100 uM incubated for 24 hrs by MTT assay relative to control; assay type: functional
A549 = assay: Antiproliferative activity against human A549 cells assessed as cell growth inhibition incubated for 48 hrs by MTT assay; assay type: functional, cell-based; conditions: A549, 48 h
[27] = Antiproliferative activity against human PZ-HPV-7 cells assessed as reduction in cell viability incubated for 48 to 96 hrs by crystal violet staining assay; assay type: toxicity, cell-based; conditions: time 48-96 hrs
HL-60 [28] = assay: Antiproliferative activity against human HL-60 cells assessed as cell growth inhibition incubated for 72 hrs by Calcein AM staining based fluorescence assay; assay type: functional; conditions: HL-60, 72 h
B16 = assay: Cytotoxicity against mouse B16 cells assessed as inhibition of cell growth incubated for 10 days by crystal violet staining based assay; assay type: functional; conditions: B16, 240 h
MRC5 = assay: Cytotoxicity against human MRC5 cells assessed as reduction in cell viability at 100 uM incubated for 24 hrs by MTT assay relative to control; assay type: toxicity, cell-based; conditions: mrc5, 24 h
HL-60 [29] = assay: Cytotoxicity against human HL-60 cells assessed as inhibition of cell growth incubated for 5 days; assay type: functional, cell-based; conditions: HL-60, 120 h
CCRF-CEM = assay: Antiproliferative activity against human CEM cells assessed as cell growth inhibition incubated for 72 hrs by Calcein AM staining based fluorescence assay; assay type: functional
[30] = Antiproliferative activity against human HEK cells assessed as cell growth inhibition incubated for 72 hrs by Beckman Coulter counting method; assay type: toxicity, cell-based
DU-145 = assay: Antiproliferative activity against human DU-145 cells assessed as reduction in cell viability incubated for 48 to 96 hrs by crystal violet staining assay; assay type: functional; conditions: time 48-96 hrs
LOX IMVI = assay: Antiproliferative activity against human LOX IMVI cells assessed as cell growth inhibition incubated for 72 hrs by Beckman Coulter counting method; assay type: functional, cell-based

SMILES: OC[C@H]1O[C@@H](n2cnc3c(NCc4ccco4)ncnc32)C[C@@H]1O
IC50 (MIA PaCa-2 [1]): > 100 µM
IC50 (HeLa [2]): > 100 µM
IC50 (MIA PaCa-2 [3]): > 100 µM
IC50 (Caco-2 [4]): > 100 µM
IC50 (MIA PaCa-2 [5]): > 100 µM
IC50 (MCF7 [6]): > 100 µM
IC50 (HeLa [7]): > 100 µM
IC50 at 24 h [8]: > 100 µM
IC50 at 72 h [9]: > 100 µM
IC50 (Caco-2 [10]): > 100 µM
IC50 (Caco-2 [11]): > 100 µM
IC50 (MCF7 [12]): > 100 µM
IC50 (HeLa [13]): > 100 µM
IC50 at 48 h [14]: > 100 µM
IC50 (OVCAR-3 [15]): > 100 µM
IC50 (MCF7 [16]): > 100 µM
IC50 (OVCAR-3 [17]): > 100 µM
IC50 (OVCAR-3 [18]): > 100 µM

SMILES: Nc1nc(NCc2ccco2)c2ncn([C@@H]3O[C@H](CO)[C@@H](O)[C@H]3O)c2n1
IC50 (MIA PaCa-2 [1]): > 100 µM
IC50 (HeLa [2]): > 100 µM
IC50 (MIA PaCa-2 [3]): > 100 µM
IC50 (Caco-2 [4]): > 100 µM
IC50 (MIA PaCa-2 [5]): > 100 µM
IC50 (MCF7 [6]): > 100 µM
IC50 (HeLa [7]): > 100 µM
IC50 at 24 h [8]: > 100 µM
IC50 at 72 h [9]: > 100 µM
IC50 (Caco-2 [10]): > 100 µM
IC50 (Caco-2 [11]): > 100 µM
IC50 (MCF7 [12]): > 100 µM
IC50 (HeLa [13]): > 100 µM
IC50 at 48 h [14]: > 100 µM
IC50 (OVCAR-3 [15]): > 100 µM
IC50 (MCF7 [16]): > 100 µM
IC50 (OVCAR-3 [17]): > 100 µM
IC50 (OVCAR-3 [18]): > 100 µM

SMILES: OC[C@H]1O[C@@H](n2cnc3c(NCc4ccoc4)ncnc32)[C@H](O)[C@@H]1O
IC50 (MIA PaCa-2 [1]): > 100 µM
IC50 (HeLa [2]): > 100 µM
IC50 (MIA PaCa-2 [3]): 1.1 µM
IC50 (Caco-2 [4]): 13.1 µM
IC50 (MIA PaCa-2 [5]): 1.4 µM
Activity (MIA PaCa-2 [19]): ~90%
IC50 (MCF7 [6]): 2.2 µM
IC50 (HeLa [7]): > 100 µM
IC50 at 24 h [8]: 16 µM
IC50 at 72 h [9]: 0.7 µM
Activity (MIA PaCa-2 [20]): 40%
IC50 (Caco-2 [10]): 18.5 µM
IC50 (Caco-2 [11]): 6.5 µM
IC50 (MCF7 [12]): 12 µM
IC50 (HeLa [13]): > 100 µM
IC50 at 48 h [14]: 1 µM
IC50 (OVCAR-3 [15]): > 100 µM
IC50 (MCF7 [16]): 2.1 µM
IC50 (OVCAR-3 [17]): 1.8 µM
IC50 (OVCAR-3 [18]): 3.3 µM

IC50 (HCT-15): 12.3 µM
IC50 (HCT-116): 0.16 µM
IC50 (HeLa [21]): 4.3 µM
IC50 (MCF7 [23]): 4.3 µM
IC50 (HT-29): 0.16 µM
IC50 (MIA PaCa-2 [25]): 0.16 µM
IC50 (A-375): 0.16 µM
IC50 (A549): 10.5 µM
IC50 (HL-60 [28]): 0.8 µM
IC50 (CCRF-CEM): 1.6 µM
SMILES: OC[C@H]1O[C@@H](n2cnc3c(NCc4ccco4)ncnc32)[C@H](O)[C@@H]1O [KINETIN RIBOSIDE]
IC50 (M4Beu cell line): 1.5 µM
IC50 (MIA PaCa-2 [1]): > 100 µM
IC50 (HeLa [2]): > 100 µM
IC50 (MIA PaCa-2 [3]): 2.6 µM
Activity (MCF7 [22]): ~80%
IC50 (Caco-2 [4]): 42 µM
IC50 (MIA PaCa-2 [5]): 3.1 µM
IC50 (MCF7 [6]): 2.8 µM
IC50 (G-361): 0.16 µM
IC50 at 72 h [24]: 0.18 µM
IC50 (HeLa [7]): > 100 µM
IC50 at 24 h [8]: 18 µM
IC50 at 72 h [9]: 1.7 µM
Activity (HeLa [26]): ~30%
IC50 (Caco-2 [10]): 88 µM
IC50 (Caco-2 [11]): 23.5 µM
IC50 (MCF7 [12]): 16.1 µM
IC50 (HeLa [13]): > 100 µM
Activity [27]: 85%
IC50 at 48 h [14]: 2.5 µM
IC50 (B16): 0.2 µM
Activity (MRC5): ~ 80%
IC50 (OVCAR-3 [15]): > 100 µM
IC50 (MCF7 [16]): 2.7 µM
IC50 (HL-60 [29]): 0.98 µM
IC50 at 72 h [30]: 0.11 µM
Activity (DU-145): 35%
IC50 (OVCAR-3 [17]): 3.1 µM
IC50 (LOX IMVI): 0.16 µM
IC50 (OVCAR-3 [18]): 7.8 µM
